Results on 12 compounds are retold here after patent US20230069722A1, “TUBULYSINS AND PROTEIN-TUBULYSIN CONJUGATES” (priority 2020, published 2023).

For the experiment, the system named is HCT15 cells. The experiment can be described thus: MDR cell based killing assay, HCT15 cells with or without Verapamil (CellTiter-Glo). The arrangement: species or system human. The settings on record: for IC50: Homo sapiens. As to the method: To test the ability of the disclosed tubulysin payloads or prodrug payloads to kill human cell lines, an in vitro cytotoxicity assay can be performed. In vitro cytotoxicity of the disclosed payloads, as well as reference compounds, are evaluated using the CellTiter-Glo Assay Kit (Promega, Cat # G7573), in which the quantity of ATP present is used to determine the number of viable cells in culture. For the assay, C4-2, HEK293, or T47D cells are seeded at 4000 cells/well on Nunclon white 96-well plates in complete growth medium (DME high glucose:Ham's F12 at 4:1, 10% FBS, 100 units/ml Penicillin, 100 ug/ml streptomycin, 53 ug/ml glutatmine, 10 ug/ml insulin, 220 ng/ml biotin, 12.5 pg/ml T3, 12.5 ug/ml Adenine, 4 ug/ml transferrin for C42 cells; DME high glucose, 10% FBS, 100 units/ml Penicillin, 100 ug/ml streptomycin, 53 ug/ml glutatmine for HEK293; RPMI, 10% FBS, 100 units/ml Penicillin, 100 ug/ml streptomycin, 53 ug/ml glutatmine, 10 ug/ml insulin, 10 mM HEPEs, 200 nM Sodium Pyruvate for T47D cells) and grown overnight at 37° C. in 5% CO2. For cell viability curves, 1:3 serially diluted payloads are added to the cells at final concentrations ranging from 100 nM to 15 pM, including a no treatment control group, and are then incubated for 5 days. After the 5-day incubation, cells are incubated at room temperature with 100 μL of CellTiter-Glo reagents for 10 minutes. Relative luminescence units (RLU) can be determined on a Victor plate reader (PerkinElmer). The IC50 values are determined from a four-parameter logistic equation over a 10-point response curve (GraphPad Prism). All IC50 values are expressed in molar (M) concentration. The percent cell killing (% kill) at the maximum concentration tested is estimated from the following formula (100−% viable cells). Averages±standard deviation (SD) can be included where replicate experiments are performed.
In vitro cytotoxicity of the disclosed payloads as well as reference compounds are evaluated similarly as described above except using 1000 HCT15 cells, a colorectal carcinoma cell line, in growth medium (RPMI, 10% FBS, 100 units/ml Penicillin, 100 ug/ml streptomycin, 53 ug/ml glutatmine) with or without 5 ug/mL of Verapamil.
For each payload or prodrug payload, the HCT-15 IC50 in the absence of Verapamil is divided by the HCT-15 IC50 in the presence of Verapamil (HCT-15 IC50/HCT-15+Verapamil IC50). […] The reference compound, (MMAE), can have a ratio of 23.7. […]

[1] abbreviates: HCT-15, read-out: HCT-15 with verapamil IC50.

The IC50 is the point on the concentration scale where inhibition reaches its midpoint.

Molecules are shown by their SMILES. Read-outs that look alike come from different tables or passages of the source. Where only a bound is given, the exact number is not on record here.

Turning to `CCCCCCN(C(=O)[C@@H](NC(=O)[C@H]1CCCCN1C)[C@@H](C)CC)[C@H](C[C@@H](OC(C)=O)c1nc(C(=O)N[C@@H](Cc2ccc(NC(=O)CO)cc2)CC(C)(C)C(=O)O)cs1)C(C)C` [Compound P29, (4S)-4-({2-[(1R,3R)-1-(acetyloxy)-3-[(2S,3S)—N-hexyl-3-methyl-2-{[(2R)-1-methylpiperidin-2-yl]formamido}pentanamido]-4-methylpentyl]-1,3-thiazol-4-yl}formamido)-5-[4-(2-hydroxyacetamido)phenyl]-2,2-dimethylpentanoic Acid], the IC50 by setting is: (HCT-15, read-out: HCT-15 IC50) 4.68 nM; under setting [1], 0.67 nM. For the same compound, the “HCT-15 with verapamil Ratio to Xa = H” value (IC50 ratio to parent payload with Xa = H, with verapamil) turned out to be 35x. Further, the “HCT-15 Ratio to Xa = H” value (IC50 ratio to parent payload with Xa = H, without verapamil) was 104x.
`CCCCCCN(C(=O)[C@@H](NC(=O)[C@H]1C[C@H](C)CCN1)[C@@H](C)CC)[C@H](C[C@@H](OC(C)=O)c1nc(C(=O)N[C@@H](Cc2ccc(N)c(F)c2)CC(C)(C)C(=O)O)cs1)C(C)C` [Compound P14, (4S)-4-({2-[(1R,3R)-1-(acetyloxy)-3-[(2S,3S)—N-hexyl-3-methyl-2-{[(2R,4R)-4-methylpiperidin-2-yl]formamido}pentanamido]-4-methylpentyl]-1,3-thiazol-4-yl}formamido)-5-(4-amino-3-fluorophenyl)-2,2-dimethylpentanoic Acid]: the IC50 (HCT-15, read-out: HCT-15 IC50) was 1.21 nM and the half-maximal inhibitory concentration (IC50) under setting [1] is 0.1 nM.
With `CCCCCCN(C(=O)[C@@H](NC(=O)[C@@]1(C)CCCN1)[C@@H](C)CC)[C@H](C[C@@H](OC(C)=O)c1nc(C(=O)N[C@@H](Cc2ccc(O)cc2)CC(C)(C)C(=O)O)cs1)C(C)C` [Compound P22, (4S)-4-({2-[(1R,3R)-1-(acetyloxy)-3-[(2S,3S)—N-hexyl-3-methyl-2-{[(2R)-2-methylpyrrolidin-2-yl]formamido}pentanamido]-4-methylpentyl]-1,3-thiazol-4-yl}formamido)-5-(4-hydroxyphenyl)-2,2-dimethylpentanoic Acid], the IC50 is, setting by setting: (HCT-15, read-out: HCT-15 IC50) 0.27 nM; under setting [1], 0.08 nM.
Turning to `C#CCCCON(C(=O)[C@@H](NC(=O)[C@H]1CCCCN1C)[C@@H](C)CC)[C@H](C[C@@H](O)c1nc(C(=O)N[C@@H](Cc2ccc(N)cc2)CC(C)(C)C(=O)O)cs1)C(C)C` [Compound P33, (4S)-5-(4-aminophenyl)-4-({2-[(1R,3R)-1-hydroxy-4-methyl-3-[(2S,3S)-3-methyl-2-{[(2R)-1-methylpiperidin-2-yl]formamido}-N-(pent-4-yn-1-yloxy)pentanamido]pentyl]-1,3-thiazol-4-yl}formamido)-2,2-dimethylpentanoic Acid], the IC50 (HCT-15, read-out: HCT-15 IC50) was 81.7 nM and the IC50 under setting [1] was 28.1 nM.
As for `CCCCCCN(C(=O)[C@@H](NC(=O)[C@H]1CCCCN1)[C@@H](C)CC)[C@H](C[C@@H](OC(C)=O)c1nc(C(=O)N[C@@H](Cc2ccc(N)c(F)c2)CC(C)(C)C(=O)O)cs1)C(C)C` [Compound P12, (4S)-4-({2-[(1R,3R)-1-(acetyloxy)-3-[(2S,3S)—N-hexyl-3-methyl-2-[(2R)-piperidin-2-ylformamido]pentanamido]-4-methylpentyl]-1,3-thiazol-4-yl}formamido)-5-(4-amino-3-fluorophenyl)-2,2-dimethylpentanoic Acid], the IC50 worked out at 0.34 nM (HCT-15, read-out: HCT-15 IC50) and 0.03 nM under setting [1].
`CCCCCCN(C(=O)[C@@H](NC(=O)[C@@]1(C)CCCN1)[C@@H](C)CC)[C@H](C[C@@H](OC(=O)NC)c1nc(C(=O)N[C@@H](Cc2ccc(O)cc2)CC(C)(C)C(=O)O)cs1)C(C)C` [Compound P23, (4S)-4-({2-[(1R,3R)-3-[(2S,3S)—N-hexyl-3-methyl-2-{[(2R)-2-methylpyrrolidin-2-yl]formamido}pentanamido]-4-methyl-1-[(methylcarbamoyl)oxy]pentyl]-1,3-thiazol-4-yl}formamido)-5-(4-hydroxyphenyl)-2,2-dimethylpentanoic Acid]: the IC50 by setting is: (HCT-15, read-out: HCT-15 IC50) 3.6 nM; under setting [1], 0.06 nM.
For `CCCCCCN(C(=O)[C@@H](NC(=O)[C@H]1CCCCN1C)[C@@H](C)CC)[C@H](C[C@@H](OC(C)=O)c1nc(C(=O)N[C@@H](Cc2ccc(F)cc2)CC(C)(C)C(=O)O)cs1)C(C)C` [Compound P10, (4S)-4-({2-[(1R,3R)-1-(acetyloxy)-3-[(2S,3S)—N-hexyl-3-methyl-2-{[(2R)-1-methylpiperidin-2-yl]formamido}pentanamido]-4-methylpentyl]-1,3-thiazol-4-yl}formamido)-5-(4-fluorophenyl)-2,2-dimethylpentanoic Acid], the IC50 reads like this: (HCT-15, read-out: HCT-15 IC50) 0.24 nM; under setting [1], 0.09 nM.
For the compound `C#CCCCON(C(=O)[C@@H](NC(=O)[C@H]1CCCCN1C)[C@@H](C)CC)[C@H](C[C@@H](OC(C)=O)c1nc(C(=O)NS(=O)(=O)Cc2ccc(N)cc2)cs1)C(C)C` [Compound P49, (1R,3R)-1-(4-{[(4-aminophenyl)methanesulfonyl]carbamoyl}-1,3-thiazol-2-yl)-4-methyl-3-[(2S,3S)-3-methyl-2-{[(2R)-1-methylpiperidin-2-yl]formamido}-N-(pent-4-yn-1-yloxy)pentanamido]pentyl Acetate], the IC50 (HCT-15, read-out: HCT-15 IC50) came to 163 nM.
As for `CCCCCCN(C(=O)[C@@H](NC(=O)[C@H]1CCCCN1C)[C@@H](C)CC)[C@H](C[C@@H](OC(C)=O)c1nc(C(=O)NS(=O)(=O)c2ccc(CN)cc2)cs1)C(C)C` [Compound P42, (1R,3R)-1-(4-{[4-(aminomethyl)benzenesulfonyl]carbamoyl}-1,3-thiazol-2-yl)-3-[(2S,3S)—N-hexyl-3-methyl-2-{[(2R)-1-methylpiperidin-2-yl]formamido}pentanamido]-4-methylpentyl Acetate], the IC50 runs as follows: (HCT-15, read-out: HCT-15 IC50) > 100 nM; under setting [1], 48.4 nM.
For `C#CCCCON(C(=O)[C@@H](NC(=O)[C@H]1CCCCN1C)[C@@H](C)CC)[C@H](C[C@@H](OC(C)=O)c1nc(C(=O)N[C@@H](Cc2ccc(NC(=O)[C@H](N)CCC(=O)O)cc2)CC(C)(C)C(=O)O)cs1)C(C)C` [Compound P41, (4S)-4-({2-[(1R,3R)-1-(acetyloxy)-4-methyl-3-[(2S,3S)-3-methyl-2-{[(2R)-1-methylpiperidin-2-yl]formamido}-N-(pent-4-yn-1-yloxy)pentanamido]pentyl]-1,3-thiazol-4-yl}formamido)-5-{4-[(2R)-2-amino-4-carboxybutanamido]phenyl}-2,2-dimethylpentanoic Acid], the concentration for half-maximal inhibition (IC50) (HCT-15, read-out: HCT-15 IC50) was determined as 82.7 nM.
For the compound `CCCCCCN(C(=O)[C@@H](NC(=O)[C@H]1CCCCN1)[C@@H](C)CC)[C@H](C[C@@H](OC(C)=O)c1nc(C(=O)N[C@@H](Cc2ccc(N)cc2)CC(C)(C)C(=O)O)cs1)C(C)C` [Compound P18, (4S)-4-({2-[(1R,3R)-1-(acetyloxy)-3-[(2S,3S)—N-hexyl-3-methyl-2-[(2R)-piperidin-2-ylformamido]pentanamido]-4-methylpentyl]-1,3-thiazol-4-yl}formamido)-5-(4-aminophenyl)-2,2-dimethylpentanoic Acid], the IC50 stood at 0.98 nM (HCT-15, read-out: HCT-15 IC50) and 0.05 nM under setting [1].
Turning to `CCCCCCN(C(=O)[C@@H](NC(=O)[C@H]1CCCCN1C)[C@@H](C)CC)[C@H](C[C@@H](NC(C)=O)c1nc(C(=O)N[C@@H](Cc2ccc(N)cc2)CC(C)(C)C(=O)O)cs1)C(C)C` [Compound P9, (4S)-5-(4-aminophenyl)-4-({2-[(1R,3R)-1-acetamido-3-[(2S,3S)—N-hexyl-3-methyl-2-{[(2R)-1-methylpiperidin-2-yl]formamido}pentanamido]-4-methylpentyl]-1,3-thiazol-4-yl}formamido)-2,2-dimethylpentanoic Acid], the IC50 stood at 2.07 nM (HCT-15, read-out: HCT-15 IC50) and 0.3 nM under setting [1].
